Measurements as given in the NIST ThermoML archive (doi:10.1016/j.jct.2014.07.023).
Numbers after ± are expanded uncertainties.

Assay: molar heat capacity at constant pressure; xn = mol fraction of the nth substance listed
Settings: 100 kPa, Liquid, Small sample (50 mg) DSC

CCC(O)CO (configuration not stated) [1,2-butanediol] + CO
molar heat capacity at constant pressure [J/K/mol]
Settings	293.15 K	298.15 K	303.15 K	308.15 K	313.15 K	318.15 K	323.15 K
x1 = 0.0476	87.09 ± 3.7	88.16 ± 3.7	89.28 ± 3.8	90.46 ± 3.8	91.68 ± 3.9	92.97 ± 3.9	94.33 ± 4
x1 = 0.2098	110.52 ± 4.7	111.89 ± 4.7	113.35 ± 4.8	114.81 ± 4.9	116.36 ± 5	117.95 ± 5	119.55 ± 5.1
x1 = 0.2964	123.04 ± 5.2	124.67 ± 5.3	126.29 ± 5.4	127.97 ± 5.4	129.69 ± 5.5	131.42 ± 5.6	133.19 ± 5.7
x1 = 0.3913	137.52 ± 5.9	139.33 ± 5.9	141.14 ± 6	143 ± 6.1	144.86 ± 6.1	146.72 ± 6.2	148.64 ± 6.3
x1 = 0.4706	148.79 ± 6.3	150.69 ± 6.4	152.65 ± 6.5	154.55 ± 6.5	156.51 ± 6.6	158.53 ± 6.7	160.49 ± 6.8
x1 = 0.6016	168.53 ± 7.2	170.74 ± 7.2	172.88 ± 7.4	175.02 ± 7.4	177.24 ± 7.5	179.38 ± 7.6	181.52 ± 7.7
x1 = 0.6991	182.48 ± 7.8	184.81 ± 7.8	187.13 ± 7.9	189.46 ± 8.1	191.71 ± 8.1	194.03 ± 8.2	196.36 ± 8.4
x1 = 0.8042	198.84 ± 8.4	201.2 ± 8.5	203.65 ± 8.7	206.01 ± 8.7	208.45 ± 8.8	210.81 ± 9	213.25 ± 9.1
x1 = 0.8917	211.25 ± 9	213.85 ± 9.1	216.37 ± 9.2	218.97 ± 9.3	221.48 ± 9.4	224 ± 9.5	226.43 ± 9.6
x1 = 0.9224	216.09 ± 9.2	218.66 ± 9.2	221.31 ± 9.4	223.88 ± 9.5	226.45 ± 9.6	229.02 ± 9.7	231.59 ± 9.8
x1 = 0.9627	222 ± 9.4	224.64 ± 9.5	227.27 ± 9.7	229.91 ± 9.8	232.46 ± 9.9	235.01 ± 9.9	237.65 ± 10
x1 = 1	228.1 ± 9.6	230.8 ± 9.8	233.5 ± 9.9	236.21 ± 10	238.91 ± 10	241.52 ± 10	244.23 ± 10

CC(O)CCO (configuration not stated) [1,3-butanediol] + CO
molar heat capacity at constant pressure [J/K/mol]
Settings	293.15 K	298.15 K	303.15 K	308.15 K	313.15 K	318.15 K	323.15 K
x1 = 0.097	92.98 ± 4	94.08 ± 4	95.24 ± 4	96.45 ± 4.1	97.77 ± 4.1	99.12 ± 4.2	100.56 ± 4.3
x1 = 0.1924	105.32 ± 4.5	106.66 ± 4.5	108.04 ± 4.6	109.47 ± 4.6	110.98 ± 4.7	112.54 ± 4.8	114.18 ± 4.8
x1 = 0.2893	118.06 ± 5	119.57 ± 5.1	121.13 ± 5.1	122.79 ± 5.2	124.45 ± 5.3	126.21 ± 5.4	128.02 ± 5.4
x1 = 0.3902	131.62 ± 5.6	133.42 ± 5.6	135.23 ± 5.7	137.09 ± 5.8	139 ± 5.9	140.97 ± 6	142.94 ± 6.1
x1 = 0.4943	145.68 ± 6.2	147.68 ± 6.3	149.69 ± 6.4	151.69 ± 6.4	153.82 ± 6.5	155.95 ± 6.6	158.19 ± 6.7
x1 = 0.6067	161 ± 6.9	163.22 ± 6.9	165.51 ± 7	167.79 ± 7.1	170.15 ± 7.2	172.5 ± 7.3	174.92 ± 7.4
x1 = 0.7843	185.37 ± 7.8	187.93 ± 8	190.57 ± 8.1	193.28 ± 8.2	195.92 ± 8.3	198.72 ± 8.5	201.51 ± 8.5
x1 = 0.9064	202.23 ± 8.6	205.11 ± 8.7	207.99 ± 8.8	210.95 ± 9	213.91 ± 9.1	216.88 ± 9.2	219.93 ± 9.3
x1 = 0.9165	203.63 ± 8.6	206.44 ± 8.8	209.34 ± 8.9	212.24 ± 9	215.22 ± 9.1	218.21 ± 9.3	221.28 ± 9.4
x1 = 0.9242	204.61 ± 8.7	207.52 ± 8.8	210.44 ± 8.9	213.44 ± 9.1	216.44 ± 9.2	219.44 ± 9.3	222.53 ± 9.4
x1 = 0.9624	210.08 ± 8.9	213.07 ± 9.1	216.06 ± 9.1	219.14 ± 9.3	222.22 ± 9.4	225.38 ± 9.6	228.55 ± 9.7
x1 = 1	215.84 ± 9.2	218.9 ± 9.3	222.06 ± 9.5	225.21 ± 9.6	228.37 ± 9.7	231.61 ± 9.8	234.86 ± 10

OCCCCO [1,4-butanediol] + CO
molar heat capacity at constant pressure [J/K/mol]
Settings	293.15 K	298.15 K	303.15 K	308.15 K	313.15 K	318.15 K	323.15 K
x1 = 0.1009	92.1 ± 3.9	93.2 ± 3.9	94.34 ± 4	95.55 ± 4.1	96.84 ± 4.1	98.2 ± 4.2	99.61 ± 4.2
x1 = 0.1972	103.34 ± 4.4	104.65 ± 4.4	106 ± 4.5	107.43 ± 4.6	108.87 ± 4.6	110.35 ± 4.7	111.91 ± 4.7
x1 = 0.2955	114.99 ± 4.9	116.42 ± 4.9	117.94 ± 5	119.47 ± 5.1	121.14 ± 5.1	122.81 ± 5.2	124.59 ± 5.3
x1 = 0.4144	129.16 ± 5.5	130.79 ± 5.6	132.48 ± 5.6	134.21 ± 5.7	136.07 ± 5.8	137.97 ± 5.8	139.99 ± 5.9
x1 = 0.5093	140.68 ± 6	142.41 ± 6	144.26 ± 6.1	146.17 ± 6.2	148.2 ± 6.3	150.29 ± 6.3	152.45 ± 6.5
x1 = 0.624	154.46 ± 6.6	156.51 ± 6.6	158.55 ± 6.8	160.74 ± 6.8	162.92 ± 6.9	165.25 ± 7	167.5 ± 7.1
x1 = 0.6996	163.59 ± 7	165.7 ± 7	167.88 ± 7.1	170.13 ± 7.2	172.46 ± 7.3	174.93 ± 7.4	177.4 ± 7.6
x1 = 0.8004	175.9 ± 7.5	178.18 ± 7.5	180.54 ± 7.7	182.97 ± 7.8	185.48 ± 7.9	188.08 ± 8	190.75 ± 8.1
x1 = 0.8591	183.21 ± 7.8	185.59 ± 7.9	188.05 ± 7.9	190.59 ± 8.1	193.21 ± 8.2	195.91 ± 8.3	198.7 ± 8.4
x1 = 0.9043	188.15 ± 7.9	190.69 ± 8.1	193.23 ± 8.2	195.85 ± 8.3	198.55 ± 8.5	201.34 ± 8.5	204.22 ± 8.6
x1 = 0.9565	194.9 ± 8.2	197.44 ± 8.4	200.07 ± 8.5	202.87 ± 8.6	205.67 ± 8.8	208.56 ± 8.8	211.63 ± 9
x1 = 1	201.15 ± 8.6	203.76 ± 8.7	206.56 ± 8.7	209.44 ± 8.9	212.33 ± 9	215.39 ± 9.1	218.54 ± 9.3
